From US8859491B2 (priority 2011, dated 2014)
Non-standard residues stand in square brackets, D forms with d. No end group written: not given here. Aib = CC(C)(N)C(=O)O

Tests used:
[1] = Administration of GLP-1 conjugates to diet induced obese mice (FIGS. 3-10, 12); format: in vivo; settings: for change in blood glucose: FIG. 5b, SEQ ID NO: 1647 at high or low doses, SEQ ID NO: 1651 at high dose; for blood glucose levels: FIG. 7b
glucocorticoid receptor = target: T1, glucocorticoid receptor (Homo sapiens, UniProt P04150); experiment: EC50
T1 construct: two clones of HeLa cells (ATCC #CCL-2) transfected with murine mammary tumor virus long terminal repeat-driven firefly luciferase; host or cells: HeLa

[2] = Administration of GLP-1 conjugates to db/db mice (FIG. 2); format: in vivo; settings: high dose
[3] = Example 15: DIO mice, daily sc dosing; format: in vivo; settings: high dose, between days 0 and 21
Procedure: Diet-induced obesity (DIO) mice (N=8, average initial body weight=59 g) were subcutaneously injected once per day for four weeks with vehicle or one of the following: […] Blood glucose levels were measured at the 0, 15, 30, 60, and 120 min time points. FIG. 4a presents data from this experiment. Body weight was measured after 21 days and the change in total body weight and fat mass were determined (FIGS. 4b-c).

[4] = Stability analysis in 100% human plasma (estrogen release); settings: 1 mg/mL, pH 7.4, 37° C.
[5] = Example 14: DIO mice, daily sc dosing; format: in vivo
Procedure: Diet-induced obesity (DIO) mice (N=8, 6 mice per group, average initial body weight=58 g) were subcutaneously injected once per day for four weeks with vehicle or 4, 40, or 400 μg/kg of one of the following:
A saline solution comprising 25% (v/v) glucose was injected at a dose of 1.5 g/kg of body weight at the 0 min time point on days 7 and 21. Blood glucose was measured at the 0, 15, 30, 60, and 120 min time points on day 7 and day 21 (FIG. 3a).
Body weight was measured after 23 days and the change in body weight, change in fat mass, and change in lean muscle mass were determined (FIGS. 3b-d).

[6] = Example 13: db/db mice, daily sc dosing; format: in vivo
Procedure: Mice (db/db, N=6, average initial body weight=54 g) were subcutaneously injected once per day for four weeks with vehicle or 40 or 400 μg/kg of one of the following:
Body weight was measured after 23 days and the change in body weight was determined (FIG. 2a).

[7] = high dose, between days 0 and 21, vs GLP-1(Aib2E16Cex K40) (SEQ ID NO: 1647) alone, FIG. 4d
[8] = over a period of 7 days, FIG. 7a
[9] = high dose (400 μg/kg-day), after 23 days
[10] = high dose, between days 0 and 14

T1 sequence (P04150 whole entry, looked up): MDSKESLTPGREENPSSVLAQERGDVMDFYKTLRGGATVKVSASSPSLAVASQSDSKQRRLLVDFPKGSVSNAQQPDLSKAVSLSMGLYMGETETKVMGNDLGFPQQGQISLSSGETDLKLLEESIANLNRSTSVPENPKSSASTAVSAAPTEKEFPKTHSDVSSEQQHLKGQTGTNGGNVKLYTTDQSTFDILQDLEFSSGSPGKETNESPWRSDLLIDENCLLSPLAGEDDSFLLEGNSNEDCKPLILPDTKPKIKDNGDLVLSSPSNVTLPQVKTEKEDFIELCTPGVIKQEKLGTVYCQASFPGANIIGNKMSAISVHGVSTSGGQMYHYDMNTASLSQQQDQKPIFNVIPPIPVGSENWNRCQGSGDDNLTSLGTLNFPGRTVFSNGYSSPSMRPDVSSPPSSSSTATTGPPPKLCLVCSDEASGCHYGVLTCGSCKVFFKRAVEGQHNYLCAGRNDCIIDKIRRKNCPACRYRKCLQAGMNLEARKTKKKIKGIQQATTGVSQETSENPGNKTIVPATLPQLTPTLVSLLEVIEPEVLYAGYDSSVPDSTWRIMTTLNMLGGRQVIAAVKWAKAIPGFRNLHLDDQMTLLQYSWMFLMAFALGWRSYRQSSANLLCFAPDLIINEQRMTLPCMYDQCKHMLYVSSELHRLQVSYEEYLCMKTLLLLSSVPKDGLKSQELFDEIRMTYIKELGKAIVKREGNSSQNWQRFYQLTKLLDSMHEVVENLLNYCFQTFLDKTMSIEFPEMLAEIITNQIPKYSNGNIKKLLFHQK

Question: What does the source list for “d-amino acid containing GLP-1/Estrogen ester conjugate: d-amino acid containing GLP-1/Estrogen conjugate, estrogen covalently linked as ester that was unstable in vivo ([dA][Aib][dE]G[dT][dF][dT][dS][dD][dV][dS][dS][dY][dL][dE]G[dQ][dA][dA][dK][dE][dA][dI][dA][dW][dL][dV][dK]GG[dP][dS][dS]G[dA][dP][dP][dP][dS]K-NH2; not fully specified (residue 40))”?
Answer: total body weight ([1]; FIG. 10a): greatest decrease; change in blood glucose levels ([1]; between days 0 and 7, vs comparable d-amino acid peptide with stable estrogen conjugate, FIG. 10b): greater change

Question: For “GLP-1(Aib^2E^16Cex K^40) (H[Aib]EGTFTSDVSSYLEEQAAKEFIAWLVKGGPSSGAPPPSK-NH2) [SEQ ID NO: 1647]”, which “change in blood glucose” value [1] is on record?
Answer: Its value is “greatest change”.

Question: Which “change in blood glucose levels” value ([1]; between days 0 and 7, FIG. 8b) does the source give for “GLP-1(Aib^2E^16Cex K^40)/Estrogen(3-ester) (H[Aib]EGTFTSDVSSYLEEQAAKEFIAWLVKGGPSSGAPPPSK-NH2; not fully specified (residue 40)) [SEQ ID NO: 1658]” here?
Answer: Its value is “greatest change”.

Question: For `CC[C@H](C)[C@H](NC(=O)[C@H](Cc1ccccc1)NC(=O)[C@H](CCC(=O)O)NC(=O)[C@H](CCCCN)NC(=O)[C@H](C)NC(=O)[C@H](C)NC(=O)[C@H](CCC(N)=O)NC(=O)[C@H](CCC(=O)O)NC(=O)[C@H](CCC(=O)O)NC(=O)[C@H](CC(C)C)NC(=O)[C@H](Cc1ccc(O)cc1)NC(=O)[C@H](CO)NC(=O)[C@H](CO)NC(=O)[C@@H](NC(=O)[C@H](CC(=O)O)NC(=O)[C@H](CO)NC(=O)[C@@H](NC(=O)[C@H](Cc1ccccc1)NC(=O)[C@@H](NC(=O)CNC(=O)[C@H](CCC(=O)O)NC(=O)C(C)(C)NC(=O)[C@@H](N)Cc1c[nH]cn1)[C@@H](C)O)[C@@H](C)O)C(C)C)C(=O)N[C@@H](C)C(=O)N[C@@H](Cc1c[nH]c2ccccc12)C(=O)N[C@@H](CC(C)C)C(=O)N[C@H](C(=O)N[C@@H](CCCCN)C(=O)NCC(=O)NCC(=O)N1CCC[C@H]1C(=O)N[C@@H](CO)C(=O)N[C@@H](CO)C(=O)NCC(=O)N[C@@H](C)C(=O)N1CCC[C@H]1C(=O)N1CCC[C@H]1C(=O)N1CCC[C@H]1C(=O)N[C@@H](CO)C(=O)NC(C(N)=O)C(C)(C)SSCCNC(=O)OCC(=O)[C@@]1(O)[C@H](C)C[C@H]2[C@@H]3CCC4=CC(=O)C=C[C@]4(C)[C@@]3(F)[C@@H](O)C[C@@]21C)C(C)C` (stereo partly drawn) [[Aib2, E16]GLP-1-CEX-Pen40(S—SCH2CH2NHCO—O-DEX)], which EC50 (glucocorticoid receptor) is on record?
Answer: Its EC50 is 73.3 µM.

Question: For `CC[C@H](C)[C@H](NC(=O)[C@H](Cc1ccccc1)NC(=O)[C@H](CCC(=O)O)NC(=O)[C@H](CCCCN)NC(=O)[C@H](C)NC(=O)[C@H](C)NC(=O)[C@H](CCC(N)=O)NC(=O)[C@H](CCC(=O)O)NC(=O)[C@H](CCC(=O)O)NC(=O)[C@H](CC(C)C)NC(=O)[C@H](Cc1ccc(O)cc1)NC(=O)[C@H](CO)NC(=O)[C@H](CO)NC(=O)[C@@H](NC(=O)[C@H](CC(=O)O)NC(=O)[C@H](CO)NC(=O)[C@@H](NC(=O)[C@H](Cc1ccccc1)NC(=O)[C@@H](NC(=O)CNC(=O)[C@H](CCC(=O)O)NC(=O)C(C)(C)NC(=O)[C@@H](N)Cc1c[nH]cn1)[C@@H](C)O)[C@@H](C)O)C(C)C)C(=O)N[C@@H](C)C(=O)N[C@@H](Cc1c[nH]c2ccccc12)C(=O)N[C@@H](CC(C)C)C(=O)N[C@H](C(=O)N[C@@H](CCCCN)C(=O)NCC(=O)NCC(=O)N1CCC[C@H]1C(=O)N[C@@H](CO)C(=O)N[C@@H](CO)C(=O)NCC(=O)N[C@@H](C)C(=O)N1CCC[C@H]1C(=O)N1CCC[C@H]1C(=O)N1CCC[C@H]1C(=O)N[C@@H](CO)C(=O)NC(CCSSCCNC(=O)OCC(=O)[C@@]1(O)[C@H](C)C[C@H]2[C@@H]3CCC4=CC(=O)C=C[C@]4(C)[C@@]3(F)[C@@H](O)C[C@@]21C)C(N)=O)C(C)C` (stereo partly drawn) [[Aib2, E16]GLP-1-CEX-homoCys40(S—SCH2CH2NHCO—O-DEX)], which EC50 (glucocorticoid receptor) is on record?
Answer: Its EC50 is 65.4 µM.

Question: Which “change in body weight” value ([2]; FIG. 2a) does the source give for “GLP-1(Aib^2A^22CexK^40)/Estrogen(17-ester) (H[Aib]EGTFTSDVSSYLEGQAAKEAIAWLVKGGPSSGAPPPSK-NH2; not fully specified (residue 40)) [SEQ ID NO: 1656]” here?
Answer: Its value is “slightly greater decrease in body weight than mice that were administered GLP-1 alone, but similar to vehicle”.

Question: What about the blood glucose levels ([2]; between days 0 and 14, FIGS. 2b and 2c) of the same compound?
Answer: The blood glucose levels was “greatest decrease”.

Question: And the “change in body weight” value ([1]; high dose, FIG. 3b)?
Answer: Its value is “greatest decrease”.

Question: What about the “change in fat mass” value ([1]; high dose, FIG. 3c) of the same compound?
Answer: Its value is “greatest decrease”.

Question: And the “change in lean muscle mass” value ([1]; high dose, FIG. 3d)?
Answer: The value was “least amount of change”.

Question: What about the “changes in blood glucose” value ([1]; high dose, between days 0 and 14, FIG. 3e) of the same compound?
Answer: Its value is “greatest decrease”.

Question: With “GLP-1(Aib^2E^16K^40Cex)/Estrogen(3-ether) (H[Aib]EGTFTSDVSSYLEEQAAKEFIAWLVKGGPSSGAPPPSK-NH2; not fully specified (residue 40)) [SEQ ID NO: 1651]” as the compound, how does the “change in blood glucose levels” value [3] read?
Answer: The value was “greater change in blood glucose levels”.

Question: What about the “change in blood glucose” value [1] of the same compound?
Answer: The value was “greatest change”.

Question: What about the “change in blood glucose levels” value ([1]; between days 0 and 7, FIG. 6c) of the same compound?
Answer: The value was “greatest change”.

Question: And the “change in blood glucose levels” value [1, 7]?
Answer: Its value is “greater change”.

Question: What about the total body weight [1, 8] of the same compound?
Answer: The total body weight was “greatest decrease”.

Question: And the blood glucose levels ([1]; over a period of 7 days)?
Answer: Its blood glucose levels is “greatest decrease”.

Question: Which results are given for `CC[C@H](C)[C@H](NC(=O)[C@H](Cc1ccccc1)NC(=O)[C@H](CCC(=O)O)NC(=O)[C@H](CCCCN)NC(=O)[C@H](C)NC(=O)[C@H](C)NC(=O)[C@H](CCC(N)=O)NC(=O)[C@H](CCC(=O)O)NC(=O)[C@H](CCC(=O)O)NC(=O)[C@H](CC(C)C)NC(=O)[C@H](Cc1ccc(O)cc1)NC(=O)[C@H](CO)NC(=O)[C@H](CO)NC(=O)[C@@H](NC(=O)[C@H](CC(=O)O)NC(=O)[C@H](CO)NC(=O)[C@@H](NC(=O)[C@H](Cc1ccccc1)NC(=O)[C@@H](NC(=O)CNC(=O)[C@H](CCC(=O)O)NC(=O)C(C)(C)NC(=O)[C@@H](N)Cc1c[nH]cn1)[C@@H](C)O)[C@@H](C)O)C(C)C)C(=O)N[C@@H](C)C(=O)N[C@@H](Cc1c[nH]c2ccccc12)C(=O)N[C@@H](CC(C)C)C(=O)N[C@H](C(=O)N[C@@H](CCCCN)C(=O)NCC(=O)NCC(=O)N1CCC[C@H]1C(=O)N[C@@H](CO)C(=O)N[C@@H](CO)C(=O)NCC(=O)N[C@@H](C)C(=O)N1CCC[C@H]1C(=O)N1CCC[C@H]1C(=O)N1CCC[C@H]1C(=O)N[C@@H](CO)C(=O)N[C@@H](CCCCNC(=O)CCC(=O)Oc1ccc2c(c1)CC[C@@H]1[C@@H]2CC[C@]2(C)[C@@H](OC(C)=O)CC[C@@H]12)C(N)=O)C(C)C` [GLP-1/Estrogen(3-ester)]?
Answer: estrogen release in plasma [4]: substantial estrogen release after 3 hours; time to complete estrogen release in plasma [4]: ≤ 6 h

Question: Which “change in blood glucose levels” value [3] does the source give for “GLP-1(Aib^2E^16K^40Cex)/Estrogen(17-ester) (H[Aib]EGTFTSDVSSYLEEQAAKEFIAWLVKGGPSSGAPPPSK-NH2; not fully specified (residue 40)) [SEQ ID NO: 1655]” here?
Answer: Its value is “greater change in blood glucose levels”.

Question: What about the “change in blood glucose levels” value ([1]; between days 0 and 7, FIG. 6c) of the same compound?
Answer: The value was “greatest change”.

Question: What about the “change in blood glucose levels” value [1, 7] of the same compound?
Answer: Its value is “greater change”.

Question: And the total body weight [1, 8]?
Answer: The total body weight was “greatest decrease”.

Question: And the blood glucose levels ([1]; over a period of 7 days)?
Answer: The blood glucose levels was “greatest decrease”.

Question: For “GLP-1(Aib^2A^22CexK^40)/Estrogen(17-ester): A22 GLP-1 analog conjugated to estrogen by 17-ester (H[Aib]EGTFTSDVSSYLEGQAAKEAIAWLVKGGPSSGAPPPSK-NH2; not fully specified (residue 40))”, which “change in body weight” value [5, 9] is on record?
Answer: Its value is “greatest decrease in body weight”.

Question: And the cumulative food intake ([5]; high dose, 23 days)?
Answer: Its cumulative food intake is “consumed the least amount of food”.

Question: And the “change in fat mass” value ([5]; high dose, after 23 days)?
Answer: Its value is “greatest decrease in body weight and fat mass”.

Question: What about the “change in lean muscle mass” value ([5]; high dose, after 23 days) of the same compound?
Answer: Its value is “least amount of lean muscle mass loss”.

Question: What about the change blood glucose [5, 10] of the same compound?
Answer: Its change blood glucose is “greatest decrease in blood glucose levels”.

Question: What about the “change in body weight” value [6, 9] of the same compound?
Answer: Its value is “greater decrease in body weight then mice that were administered GLP-1 alone”.

Question: And the cumulative food intake ([6]; high dose, 23 days)?
Answer: The cumulative food intake was “consumed less food than those that were administered GLP-1 alone”.

Question: And the blood glucose levels [6, 10]?
Answer: Its blood glucose levels is “greatest decrease in blood glucose levels”.
